Patent publication US7576177B2, “Hsp peptides and analogs for modulation of immune responses via antigen presenting cells” (Andromeda Biotech Ltd., priority 2002, dated 2009)

Experiments:
[1] = tested on: peripheral blood monocytes; test: Peripheral blood monocytes: IP-10 after direct stimulation or preincubation then LPS; assay type: cell-based, human
Procedure: Peripheral blood mononuclear cells were prepared from leucocytes of blood lots obtained from the blood bank. The cells were plated at a concentration of 4×10^6 cell/ml/well in 24 well tissue culture dishes in medium containing 10% fetal calf serum. The cells were allowed to adhere for 2 hours at 37° C. After this time, non-adherent cells were washed away and the adherent cells incubated in fresh medium containing 10% human AB serum for 6-8 days, changing the medium after 4 days. These culture conditions were reported to give rise to monocytes.
For stimulation the medium was replaced with medium without serum. For preincubation, the cells were exposed overnight to the tested compounds at various concentrations and then LPS was added. The supernatant was collected after a further overnight incubation and tested for various cytokines by ELISA assays.

[2] = tested on: peripheral blood mononuclear cells cultured with GM-CSF and IL4 (dendritic cells); test: Peripheral blood derived dendritic cells: secreted cytokines (IP-10, IL-8) and cell surface antigens (CD83, CD86); assay type: cell-based, human; conditions: for IL-8 / IP-10: overnight
Procedure: The effect of the compositions of the present invention on peripheral blood derived dendritic cells, was tested according to a protocol described by Re, F. and Strominger, J. L. 2001. Toll-like receptor 2 (Tlr2) and Tlr4 differentially activate human dendritic cells. (J Biol Chem 276: 37692-9). According to this method immature dendritic cells derived from human peripheral blood are used. The outcome after incubating the cells with tested molecules is different if the stimulation is through the Toll 4 receptor or the Toll 2 receptor. According to the authors, Toll 2 signaling by stimulation with zymosan is associated with a Th2 kind of response (exemplified by IL-8) and Toll 4 signaling, such as obtained by LPS stimulation (exemplified by IP-10), with a Th1 type of response. The compositions of the present invention were tested using a similar assay system in order to check which stimulation type they induce. […] The increase in CD86 expression after exposure of APCs to Hsps or Hsp derived peptides is important since CD86 (B7.2) is an essential component of the immunological synapse formed between T cells and APC. This synapse consists of CD80 and CD86 on the side of the APC and CD28 and CD40 on the side of the T cell. T cell recognition of peptide on APC without the concurrent expression of CD86 gives rise to anergy instead of a T cell response. Therefore in order to produce a response all components must be present.
The assay was based on the protocol described by Re, F. and Strominger, J. L. 2001. Toll-like receptor 2 (Tlr2) and Tlr4 differentially activate human dendritic cells. (J. Biol Chem 276: 37692-9).
Peripheral blood mononuclear cells were prepared from leucocytes from blood lots obtained from the blood bank. The cells were plated at 10^8 cells/10 ml/Petri dish in RPMI medium including 10% FCS and allowed to adhere at 37° C. for 2 hours. At the end of this time, the non-adherent cells were washed off the plates with PBS and the adherent cells resuspended in fresh medium as before. The cells were then cultured for at least 8 days with the addition of GM-CSF and IL4 with the medium changed every 4 days. After this time, the cells were harvested and cultured overnight with LPS, zymosan or p277(Val^6-Va^11). The next day, the supernatant was collected for assay of the secreted cytokines (IP-10 and IL-8) and the cells were harvested for investigation of the cell surface antigens (CD83, CD86). CD83 is an antigen characteristic of dendritic cells. […] The second marker, CD86 (B7.2) is characteristic of mature dendritic cells. The marker CD86 is an essential component of the immunological synapse formed between T cells and APC. This synapse consists of CD80 and CD86 on the side of the APC and CD28 and CD40 on the side of the T cell. This is of course in addition to the specific recognition between the T cell receptor and peptide held in the MHC of the APC. T cell recognition of peptide on APC without the concurrent expression of CD86 gives rise to anergy instead of a T cell response.

With “VLGGGVALLRVIPALDSLTPANED [p277(Val^6-Val^11)]” the “amount of IP-10 produced in response to stimulus with LPS after preincubation” value ([1]; overnight preincubation, then LPS, FIG. 4) was “did increase the amount of IP-10”, the “IP-10 after direct stimulation” value ([1]; peripheral blood monocytes, no preincubation, FIG. 4) was “did not give rise directly to II-10” and the “IP-10 in response to hsp60 after preincubation” value ([1]; preincubation with p277(Val^6-Val^11), then hsp60) was “did not give rise to IP-10”. For the same sequence, the “IL-8 secretion (in words)” value ([2]; overnight stimulation) was “resulted in IL-8 secretion”, the “IP-10 secretion (in words)” value ([2]; overnight stimulation) was “no IP-10 secretion” and the “maturation: percentage of cells stained with anti-CD86” value ([2]; overnight stimulation, FIG. 3) was “increase of maturation”. For the same sequence, the IL-8 ([2]; stimulus 0.5 ng/ml) was 2368 pg/mL, the IP-10 ([2]; stimulus 0.5 ng/ml) was -1 pg/mL and the IP-10 ([2]; stimulus 5 ng/ml) was 2 pg/mL. The IL-8 ([2]; stimulus 50 ng/ml) was 2574 pg/mL, the IP-10 ([2]; stimulus 50 ng/ml) was 39 pg/mL and the IP-10 ([2]; stimulus 0.5 μg/ml) was 21 pg/mL.
